Reference: ChEMBL document CHEMBL1255486, “Effect of vicriviroc on the QT/corrected QT interval and central nervous system in healthy subjects” (Antimicrob Agents Chemother, 2010)

Experiments:
[1] = AUC (0 to 24 hrs) in healthy human at 200 mg/kg, po once daily for 7 days measured after 1 day of last dose; type: ADME, organism-based; set-up: time < 24 hr, dose 200 mg/kg, route oral; settings: plasma
[2] = Cmax in healthy human at 250 mg/kg, po administered as single dose after 1 day; type: ADME, organism-based; set-up: dose 250 mg/kg, route oral; settings: in vivo
[3] = system: Homo sapiens; test: Toxicity in healthy human assessed as back pain at 250 mg/kg, po once daily for 7 days; type: organism-based; set-up: dose 250 mg/kg, route oral; settings: in vivo, 168 h
[4] = system: Homo sapiens; test: Toxicity in healthy human assessed as EEG abnormality at 150 […], po once daily for 7 days; type: organism-based; set-up: dose 150 mg/kg, route oral; settings: in vivo, 168 h
[5] = system: Homo sapiens; test: Cardiotoxicity in healthy human assessed as change in corrected QT interval at 30 mg/kg, po after 10 days by ECG; type: toxicity, organism-based; set-up: dose 30 mg/kg, route oral; settings: in vivo, 240 h
[6] = Tmax in healthy human at 250 mg/kg, po administered as single dose after 1 day; type: ADME, organism-based; set-up: dose 250 mg/kg, route oral; settings: in vivo
[7] = Tmax in healthy human at 250 mg/kg, po once daily for 7 days measured after 1 day of last dose; type: ADME, organism-based; set-up: dose 250 mg/kg, route oral; settings: in vivo
[8] = AUC (0 to 24 hrs) in healthy human at 150 […], po once daily for 7 days; type: ADME, organism-based; set-up: time < 24 hr, dose 150 mg/kg, route oral; settings: plasma
[9] = system: Homo sapiens; test: Toxicity in healthy human assessed as pollakiuria at 250 […], po once daily for 7 days; type: organism-based; set-up: route oral; settings: in vivo, 168 h
[10] = system: Homo sapiens; test: Toxicity in healthy human assessed as nausea at 250 […], po once daily for 7 days; type: organism-based; set-up: route oral; settings: in vivo, 168 h
[11] = system: Homo sapiens; test: Toxicity in healthy human assessed as headache at 250 […], po administered as single dose; type: organism-based; set-up: route oral; settings: in vivo
[12] = Tmax in healthy human at 300 mg/kg, po administered as single dose after 1 day; type: ADME, organism-based; set-up: dose 300 mg/kg, route oral; settings: in vivo
[13] = Tmax in healthy human at 200 mg/kg, po once daily for 7 days; type: ADME, organism-based; set-up: dose 200 mg/kg, route oral; settings: in vivo
[14] = system: Homo sapiens; test: Toxicity in healthy human assessed as pollakiuria at 250 […], po administered as single dose; type: organism-based; set-up: route oral; settings: in vivo
[15] = Tmax in healthy human at 200 mg/kg, po administered as single dose after 1 day; type: ADME, organism-based; set-up: dose 200 mg/kg, route oral; settings: in vivo
[16] = AUC (0 to 24 hrs) in healthy human at 250 mg/kg, po once daily for 7 days measured after 1 day of last dose; type: ADME, organism-based; set-up: time < 24 hr, dose 250 mg/kg, route oral; settings: plasma
[17] = system: Homo sapiens; test: Toxicity in healthy human assessed as back pain at 300 mg/kg, po administered as single dose; type: organism-based; set-up: dose 300 mg/kg, route oral; settings: in vivo
[18] = system: Homo sapiens; test: Toxicity in healthy human assessed as headache at 250 […], po once daily for 7 days; type: organism-based; set-up: route oral; settings: in vivo, 168 h
[19] = system: Homo sapiens; test: Toxicity in healthy human assessed as fatigue at 200 […], po once daily for 7 days; type: organism-based; set-up: route oral; settings: in vivo, 168 h
[20] = system: Homo sapiens; test: Toxicity in healthy human assessed as headache at 150 […], po once daily for 7 days; type: organism-based; set-up: route oral; settings: in vivo, 168 h
[21] = system: Homo sapiens; test: Toxicity in healthy human assessed as nausea at 300 […], po administered as single dose; type: organism-based; set-up: route oral; settings: in vivo
[22] = system: Homo sapiens; test: Toxicity in healthy human assessed as nausea at 200 […], po once daily for 7 days; type: organism-based; set-up: route oral; settings: in vivo, 168 h
[23] = Cmax in healthy human at 300 mg/kg, po administered as single dose after 1 day; type: ADME, organism-based; set-up: dose 300 mg/kg, route oral; settings: in vivo
[24] = system: Homo sapiens; test: Toxicity in healthy human assessed as headache at 200 […], po administered as single dose; type: organism-based; set-up: route oral; settings: in vivo
[25] = AUC (0 to infinity) in healthy human at 250 mg/kg, po administered as single dose after 1 day; type: ADME, organism-based; set-up: time infinity, dose 250 mg/kg, route oral; settings: plasma
[26] = Cmax in healthy human at 150 […], po once daily for 7 days measured after 1 day of last dose; type: ADME, organism-based; set-up: dose 150 mg/kg, route oral; settings: in vivo
[27] = system: Homo sapiens; test: Toxicity in healthy human assessed as headache at 300 […], po administered as single dose; type: organism-based; set-up: route oral; settings: in vivo
[28] = system: Homo sapiens; test: Toxicity in healthy human assessed as fatigue at 150 […], po once daily for 7 days; type: organism-based; set-up: route oral; settings: in vivo, 168 h
[29] = system: Homo sapiens; test: Toxicity in healthy human assessed as pollakiuria at 200 […], po administered as single dose; type: organism-based; set-up: route oral; settings: in vivo
[30] = system: Homo sapiens; test: Toxicity in healthy human assessed as fatigue at 250 […], po administered as single dose; type: organism-based; set-up: route oral; settings: in vivo
[31] = AUC (0 to 24 hrs) in healthy human at 30 mg/kg, po after 10 days; type: ADME, organism-based; set-up: time < 24 hr, dose 30 mg/kg, route oral; settings: plasma
[32] = Cmax in healthy human at 200 mg/kg, po once daily for 7 days; type: ADME, organism-based; set-up: dose 200 mg/kg, route oral; settings: in vivo
[33] = system: Homo sapiens; test: Toxicity in healthy human assessed as increase in blood […] at 250 […], po once daily for 7 days; type: organism-based; set-up: route oral; settings: in vivo, 168 h
[34] = AUC (0 to 24 hrs) in healthy human at 150 […], po after 10 days; type: ADME, organism-based; set-up: time < 24 hr, dose 150 mg/kg, route oral; settings: plasma
[35] = system: Homo sapiens; test: Toxicity in healthy human assessed as puncture site pain at 300 […], po administered as single dose; type: organism-based; set-up: route oral; settings: in vivo

AUC at 24 h [1]: 5390 ng·h/mL | Cmax [2]: 984 ng/mL | Tmax [6]: 2 h | Tmax [7]: 1.5 h | AUC at 24 h [8]: 6060 ng·h/mL | Tmax [12]: 2.9 h | Tmax [13]: 2 h | Tmax [15]: 2 h | AUC at 24 h [16]: 5050 ng·h/mL | Cmax [23]: 1130 ng/mL | AUC(0-inf) [25]: 11000 ng·h/mL | Cmax [26]: 474 ng/mL | AUC at 24 h [31]: 6670 ng·h/mL | Cmax [32]: 949 ng/mL | AUC at 24 h [34]: 32200 ng·h/mL
Compound: COC[C@@H](c1ccc(C(F)(F)F)cc1)N1CCN(C2(C)CCN(C(=O)c3c(C)ncnc3C)CC2)C[C@@H]1C [VICRIVIROC]
Activity [3]: 20% | Activity [4]: 0% | Activity [5]: Non-toxic | Activity [9]: 0% | Activity [10]: 13% | Activity [11]: 38% | Activity [14]: 0% | Activity [17]: 20% | Activity [18]: 25% | Activity [19]: 0% | Activity [20]: 50% | Activity [21]: 13% | Activity [22]: 13% | Activity [24]: 0% | Activity [27]: 13% | Activity [28]: 50% | Activity [29]: 0% | Activity [30]: 13% | Activity [33]: 10% | Activity [35]: 17%
